“Also recorded” adds a separate entry of the source.
Key:
[1] = test system: dollar spot, Sclerotinia homeocarpa; test: Field study of disease control on creeping bentgrass plots (percent inhibition, Colby synergy); type: in vivo; settings: four applications at 14 day intervals, rated 15 days after final application, chlorothalonil 3.1, iprodione 1.03, thiophanate methyl 1.03, tebuconazole 0.31 LBai/A where included
Source text: In the context of the present subject matter, the term “synergy” is as defined by S. R. Colby in an article entitled “Calculation of the synergistic and antagonistic responses of herbicide combinations” published in the journal Weeds, 1967, 15, p. 20-22, incorporated herein by reference in its entirety. The action expected for a given combination of four active components can be calculated as follows:
[formula] in which E represents the expected percentage of fungicidal control (percent inhibition) for the multiple mixture of fungicides at defined doses (for example equal to x, y, z and w, respectively). X is the percentage of fungicide control observed by chlorothalonil at a defined dose (equal to x). Y is the percentage of fungicide control observed by iprodione at a defined dose (equal to y). Z is the percentage of fungicide control observed by thiophanate methyl at a defined dose (equal to z). W is the percentage of fungicide control observed by tebuconazole at a defined dose (equal to w). Here, efficacy or percent inhibition is determined in %. 0% means efficacy that corresponds to the Control, i.e., as if no treatment had been applied. Whereas, a percent inhibition of 100% means that no infection is observed. When the percent inhibition observed for the combination is greater than E, there is a synergistic effect. When the percent inhibition observed for the combination is equal to E, there is an additive effect and wherein the percent inhibition observed for the combination is lower than E, there is an antagonistic effect.
In the Colby model, one can transform its use of “percent inhibition” (or control) to “percent-of-untreated Control” to solve for E1 rather than E and simplify the equation:
[formula] where E1=100−E (conversely, solving for E, 100−E1=E), X1=100−X, Y1=100−Y, Z1=100−Z, and W1=100−W. Although many combinations of fungicides have been studied and evaluated by means of the Colby Index, it is quite clear by modeling such synthetic expressions of synergy that the addition of a third, or even fourth, active ingredient to the premix may encounter the Point of Diminishing Returns caused by correction factors for 3- and 4-way interactions that offset the increase in E (or decrease in E1). In marked contrast, the present subject matter has shown an expansive effect and performance boost so great that differences between the observed and expected values computed according to Colby can best be used as a descriptive statistic confirming the quarternary fungicidal mixture's obvious effect.
(§1) A field study was conducted to identify which combinations would maintain or improve Turf Quality (TQ) and prevent or cure crown, basal or foliar pathogens such as dollar spot. Each solo treatment, 2-way (Pair), 3-way (Triad), and the present quaternary fungicidal mixture was applied bi-weekly beginning Jul. 1, 2013 prior to any evidence of decline in TQ or appearance of disease. Experimental plots were laid out in a Randomized Complete Block design.
(§2) The dosage of each fungicidal active substance was held constant regardless of whether it appeared alone or in combination with other fungicides in order to quantify synergy according to the Colby formula. The quaternary mixture of the present subject matter was applied at the lowest rate specified herein, about 5.5 lb active substance per acre. Applications were made to replicate plots of creeping bentgrass (Agrostis stolonifera), each measuring 3 ft×5 ft. The turf was mowed as needed to maintain standard fairway height (blade length less than 0.5″). Four applications were made at 14 day re-treatment intervals, which is a conventional treatment schedule at the time of year when outbreaks of turfgrass disease occur reliably in the mid-Atlantic region (Greenville, Del.).
The mix rate and volume of dilute spray applied to each plot was held constant. […]

[2] = test system: creeping bentgrass (Agrostis stolonifera); test: Field study, Turf Quality (TQ) rating of treated plots; type: in vivo; settings: ordinal scale 1-9 (8 and higher ideal, under 6 unacceptable), same plots, rates and timing, 15 days after final application
Method: as §1, §2
The mix rate and volume of dilute spray applied to each plot was held constant. A CO2 backpack sprayer outfitted with TeeJet AI9504E flat fan nozzle delivered a water dilution of each treatment at the use rate of 43.5 gallons per acre (407 liters Ha^−1) and 35 psi (0.375 gallons per minute).
Plots were evaluated and disease or cause of lesion identified 15 days after the final scheduled application, which was made on 12 August. At that time researchers rated each plot's TQ, the incidence of disease and its severity. Percent disease ratings were calculated on the basis of the percent of area of each plot showing symptoms of a disease, primarily dollar spot. Turf quality and color ratings are typically used as an indicator of the health of the turfgrass. Turf quality is scored on an ordinal scale from 1-9, where plots rated 8 and higher are considered ideal for color, uniformity and density, around 6.5 and above is considered acceptable, and ratings under 6 unacceptable for turfgrass disease and/or turf quality.
Disease pressure evidenced by the untreated control ratings was considered severe. Six untreated control plots averaged 40% incidence, primarily due to a continuous increase in dollar spot pressure over time. By the end of the trial, TQ of the untreated plots declined to a low level, where leaf die-back, bleaching and lesions rated an average TQ of 4.2. Turf quality of plots treated with each active substance alone at these dosages was poor, averaging 3.9.

Row | SMILES | Percent Inhibition [1] [%] | Percent Inhibition ([1]; listed as thiophanate methyl) | Turf Quality [2] | Turf Quality ([2]; listed as thiophanate methyl) | Percent Inhibition ([1]; listed as iprodione) | Turf Quality ([2]; listed as iprodione)
1 | COC(=O)NC(=S)Nc1ccccc1NC(=S)NC(=O)OC [Thio methyl, Thiophanate methyl] | 0 | no better than the untreated control | 3.3 | no better than the untreated control; also recorded: significantly lower ratings than those of the untreated Control |  | 
2 | N#Cc1c(Cl)c(Cl)c(Cl)c(C#N)c1Cl [Chlorothalonil] | 15.8 |  | 4.3 |  |  | 
3 | CC(C)(C)C(O)(CCc1ccc(Cl)cc1)Cn1cncn1 (stereo not drawn) [Tebuconazole] | 19.3 |  | 4.0 |  |  | 
4 | CC(C)NC(=O)N1CC(=O)N(c2cc(Cl)cc(Cl)c2)C1=O [Iprodione] | 5.8 |  | 4.0 |  | no better than the untreated control | no better than the untreated control

Source: patent US10729137B2, “Quaternary fungicidal mixture” (priority 2013, dated 2020)
